Columns and labels:
human Edg-1(S1P1) [1] = target: T1, human Edg-1(S1P1) (Homo sapiens, UniProt P21453); test: Membrane system binding test: inhibition of [33P]-S1P binding to the membrane fraction of Edg-1(S1P1) gene transferred HEK-293 cells; details: [33P]-S1P 0.1 nM
T1 construct: expressed in transfected cells; host or cells: HEK-293
Summary of the method: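 Compound tested at 10^−5 M final (0.1% DMSO) for blocking 0.1 nM [^33P]-S1P binding to S1P1-expressing HEK-293 membranes, 30 °C, 1 h. Radioactivity retained on filters was counted, and percent inhibition derived relative to vehicle binding, correcting for the background of non-transfected HEK-293 membranes.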

human Edg-1(S1P1) [2] = target: T1, human Edg-1(S1P1); test: Cell system binding test: inhibition of [3H]-S1P binding to Edg-1(S1P1) gene transferred HEK-293 cells; details: [3H]-S1P 10 nM
[3] = 10 μM compound, membrane fraction of Edg-1(S1P1) gene transferred HEK-293 cells, read-out: Membrane system binding test % inhibition (10 μM)
[4] = 10 μM compound, read-out: Cell system binding test % inhibition (10 μM)
[5] = 10 μM compound, membrane fraction of Edg-1(S1P1) gene transferred HEK-293 cells
[6] = test compound 10^-5 M, 1 hour at 30° C., HEK-293 membrane fraction, read-out: Edg-1(S1P1) binding inhibition rate (membrane system binding test)
[7] = test compound 10^-5 M, 1 hour, read-out: Edg-1(S1P1) binding inhibition rate (cell system binding test)

T1 sequence (P21453 whole entry): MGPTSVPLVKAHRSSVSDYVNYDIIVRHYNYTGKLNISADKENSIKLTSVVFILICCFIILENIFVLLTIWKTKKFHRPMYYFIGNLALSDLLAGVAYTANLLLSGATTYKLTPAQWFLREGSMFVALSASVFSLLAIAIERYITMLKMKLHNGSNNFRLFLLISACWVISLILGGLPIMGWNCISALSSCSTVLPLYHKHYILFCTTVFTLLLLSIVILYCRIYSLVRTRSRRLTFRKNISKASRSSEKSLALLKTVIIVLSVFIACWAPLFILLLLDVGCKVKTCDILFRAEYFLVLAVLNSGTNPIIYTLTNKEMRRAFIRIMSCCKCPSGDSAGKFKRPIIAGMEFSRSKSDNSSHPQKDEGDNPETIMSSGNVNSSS

Row | SMILES | inhibition at 10 µM (human Edg-1(S1P1) [1]; [6]) | inhibition at 10 µM (human Edg-1(S1P1) [2]; [7]) | also measured
1 | CCn1c(OC)nnc1[C@@H](Cc1ccccc1Cl)NS(=O)(=O)c1ccc(Cl)cc1 [Compound 439] | – | – | inhibition at 10 µM (human Edg-1(S1P1) [1]; [3]): 100%; inhibition at 10 µM (human Edg-1(S1P1) [2]; [4]): 95%
2 | CCn1c(OC)nnc1[C@@H](Cc1cccc(Cl)c1)NS(=O)(=O)c1ccc(Cl)cc1 [Compound 440] | – | – | inhibition at 10 µM (human Edg-1(S1P1) [1]; [3]): 102%; inhibition at 10 µM (human Edg-1(S1P1) [2]; [4]): 95.1%
3 | CCn1c(OC)nnc1[C@@H](C)NS(=O)(=O)c1ccc2[nH]c(=O)oc2c1 [Compound 443] | – | – | inhibition at 10 µM (human Edg-1(S1P1) [1]; [3]): 43%; inhibition at 10 µM (human Edg-1(S1P1) [2]; [4]): 31.3%
4 | CCn1c(OC)nnc1[C@@H](C)NS(=O)(=O)c1ccc(NC(C)=O)cc1 [Compound 444] | – | – | inhibition at 10 µM (human Edg-1(S1P1) [1]; [3]): 60.9%; inhibition at 10 µM (human Edg-1(S1P1) [2]; [4]): 18.2%
5 | CCOc1nnc([C@@H](C)NS(=O)(=O)c2cccc(Cl)c2)n1CC [Compound 445] | – | – | inhibition at 10 µM (human Edg-1(S1P1) [1]; [3]): 81.6%; inhibition at 10 µM (human Edg-1(S1P1) [2]; [4]): 93%
6 | CCOc1nnc([C@@H](C)NS(=O)(=O)c2ccc(CC)cc2)n1CC [Compound 446] | – | – | inhibition at 10 µM (human Edg-1(S1P1) [1]; [3]): 72.5%; inhibition at 10 µM (human Edg-1(S1P1) [2]; [4]): 91.4%
7 | CCOc1nnc([C@@H](C)NS(=O)(=O)c2cccc(OC)c2)n1CC [Compound 447] | – | – | Membrane system binding test % inhibition (10 μM) (human Edg-1(S1P1) [1]; [5]): 72.2%; Cell system binding test % inhibition (10 μM) (human Edg-1(S1P1) [2]; 10 μM compound): 89.2%
8 | CCn1c(OC)nnc1[C@@H](C)NS(=O)(=O)c1ccc(Br)c(Br)c1 [Compound 448] | – | – | Membrane system binding test % inhibition (10 μM) (human Edg-1(S1P1) [1]; [5]): 99.6%; Cell system binding test % inhibition (10 μM) (human Edg-1(S1P1) [2]; 10 μM compound): 89.7%
9 | CCn1c(OC)nnc1[C@@H](C)NS(=O)(=O)c1cc(F)c(Br)cc1F [Compound 449] | – | – | Membrane system binding test % inhibition (10 μM) (human Edg-1(S1P1) [1]; [5]): 65.9%; Cell system binding test % inhibition (10 μM) (human Edg-1(S1P1) [2]; 10 μM compound): 91.6%
10 | CCOc1nnc([C@@H](C)NS(=O)(=O)c2cc(F)c(F)c(F)c2)n1CC [Compound 450] | – | – | inhibition at 10 µM (human Edg-1(S1P1) [1]; [3]): 93.8%; inhibition at 10 µM (human Edg-1(S1P1) [2]; [4]): 92.3%
11 | CCOc1nnc([C@@H](C)NS(=O)(=O)c2cc(F)c(Br)cc2F)n1CC [Compound 451] | – | – | inhibition at 10 µM (human Edg-1(S1P1) [1]; [3]): 62.7%; inhibition at 10 µM (human Edg-1(S1P1) [2]; [4]): 94.2%
12 | CCn1c(OC(C)C)nnc1[C@@H](C)NS(=O)(=O)c1ccc(Br)s1 [Compound 452] | 89.7% | 91.8% | –
13 | CCn1c(OC(C)C)nnc1[C@@H](C)NS(=O)(=O)c1cc(F)c(F)c(F)c1 [Compound 458] | 91.9% | 86.5% | –
14 | CCn1c(OC)nnc1[C@@H](COC)NS(=O)(=O)c1ccc(Cl)cc1 [Compound 459] | 68.5% | 89.9% | –
15 | CCn1c(OC(C)C)nnc1[C@@H](C)NS(=O)(=O)c1ccc2ccccc2c1 [Compound 464] | 98.3% | 99.6% | –
16 | CCn1c(OC(C)C)nnc1[C@@H](C)NS(=O)(=O)c1cccc(OC(F)F)c1 [Compound 466] | 88.8% | 99.3% | –
17 | CCn1c(OC(C)C)nnc1[C@@H](C)NS(=O)(=O)c1cccc(Cl)c1C [Compound 471] | 91% | 96.5% | –
18 | CCn1c(OC(C)C)nnc1[C@@H](C)NS(=O)(=O)c1cc(Cl)c(Cl)s1 [Compound 475] | 86.4% | 97.9% | –
19 | CCc1ccc(S(=O)(=O)N[C@H](C)c2nnc(OC(C)C)n2CC)cc1 [Compound 480] | 77.4% | 93.1% | –
20 | CCn1c(OC(C)C)nnc1[C@@H](C)NS(=O)(=O)c1cccc(OC)c1 [Compound 481] | 64.9% | 96.3% | –
21 | CCn1c(OC(C)C)nnc1[C@@H](C)NS(=O)(=O)c1cc(F)c(Br)cc1F [Compound 482] | 72.3% | 90.7% | –
22 | CCn1c(OCC(F)(F)F)nnc1[C@@H](C)NS(=O)(=O)c1ccc(Br)s1 [Compound 484] | 63.2% | 102% | –
23 | CCn1c(OCC(F)(F)F)nnc1[C@@H](C)NS(=O)(=O)c1ccc(Cl)c(Cl)c1 [Compound 485] | 95.5% | 103% | –
24 | CCn1c(OCC(F)(F)F)nnc1[C@@H](C)NS(=O)(=O)c1ccc(F)c(Cl)c1 [Compound 488] | 91.4% | 102% | –
25 | CCn1c(OCC(F)(F)F)nnc1[C@@H](C)NS(=O)(=O)c1cc(F)c(F)c(F)c1 [Compound 490] | 88.9% | 101% | –

More lines, main results first:

Row | inhibition at 10 µM (human Edg-1(S1P1) [1]; [6]) | inhibition at 10 µM (human Edg-1(S1P1) [2]; [7]) | SMILES | also measured
26 | 97.1% | 89.4% | CCn1c(OC(C)C)nnc1[C@@H](C)NS(=O)(=O)c1ccc(Cl)c(Cl)c1 [Compound 453] | –
27 | 92.6% | 91.7% | CCn1c(OC(C)C)nnc1[C@@H](C)NS(=O)(=O)c1ccc(C)c(Cl)c1 [Compound 454] | –
28 | 91.7% | 93.2% | CCn1c(OC(C)C)nnc1[C@@H](C)NS(=O)(=O)c1ccc(Br)c(F)c1 [Compound 455] | –
29 | 89% | 87.4% | CCn1c(OC(C)C)nnc1[C@@H](C)NS(=O)(=O)c1ccc(F)c(Cl)c1 [Compound 456] | –
30 | 101% | 85.4% | CCn1c(OC(C)C)nnc1[C@@H](C)NS(=O)(=O)c1ccc(Br)c(C)c1 [Compound 457] | –
31 | 76.3% | 94.5% | CCn1c(OC(C)C)nnc1[C@@H](C)NS(=O)(=O)c1cccc(Br)c1 [Compound 460] | –
32 | 89.5% | 87.9% | CCn1c(OC(C)C)nnc1[C@@H](C)NS(=O)(=O)c1ccc(Br)cc1 [Compound 461] | –
33 | 92.1% | 83.5% | CCn1c(OC(C)C)nnc1[C@@H](C)NS(=O)(=O)c1ccc(C)c(C)c1 [Compound 462] | –
34 | 97.2% | 88.7% | CCn1c(OC(C)C)nnc1[C@@H](C)NS(=O)(=O)c1ccc(C)c(F)c1 [Compound 463] | –
35 | 88% | 97.9% | CCn1c(OC(C)C)nnc1[C@@H](C)NS(=O)(=O)c1ccc(F)c(F)c1 [Compound 465] | –
36 | 98.6% | 100% | CCn1c(OC(C)C)nnc1[C@@H](C)NS(=O)(=O)c1ccc(Br)c(Br)c1 [Compound 467] | –
37 | 75.8% | 96.9% | CCn1c(OC(C)C)nnc1[C@@H](C)NS(=O)(=O)c1cccc(C(F)(F)F)c1 [Compound 468] | –
38 | 83.9% | 95.9% | CCn1c(OC(C)C)nnc1[C@@H](C)NS(=O)(=O)c1cccc(OC(F)(F)F)c1 [Compound 469] | –
39 | 80.8% | 91.6% | CCn1c(OC(C)C)nnc1[C@@H](C)NS(=O)(=O)c1cccc(C)c1 [Compound 470] | –
40 | 94.4% | 102% | CCn1c(OC(C)C)nnc1[C@@H](C)NS(=O)(=O)c1ccc2nsnc2c1 [Compound 472] | –
41 | 91.7% | 95.1% | CCn1c(OC(C)C)nnc1[C@@H](C)NS(=O)(=O)c1ccc(C(F)(F)F)cc1 [Compound 473] | –
42 | 79% | 93% | CCn1c(OC(C)C)nnc1[C@@H](C)NS(=O)(=O)c1cc(F)cc(F)c1 [Compound 474] | –
43 | 86.1% | 100% | CCn1c(OC(C)C)nnc1[C@@H](C)NS(=O)(=O)c1ccc(I)cc1 [Compound 476] | –
44 | 77.1% | 92% | CCn1c(OC(C)C)nnc1[C@@H](C)NS(=O)(=O)c1ccc(F)cc1 [Compound 477] | –
45 | 86% | 104% | CCn1c(OC(C)C)nnc1[C@@H](C)NS(=O)(=O)c1ccc(Br)c(C(F)(F)F)c1 [Compound 478] | –
46 | 83% | 93.3% | CCn1c(OC(C)C)nnc1[C@@H](C)NS(=O)(=O)c1cccc(Cl)c1 [Compound 479] | –
47 | 93.8% | 99.5% | CCn1c(OCC(F)(F)F)nnc1[C@@H](C)NS(=O)(=O)c1ccc(C)c(Cl)c1 [Compound 486] | –
48 | 90.4% | 99.6% | CCn1c(OCC(F)(F)F)nnc1[C@@H](C)NS(=O)(=O)c1ccc(Br)c(F)c1 [Compound 487] | –
49 | 98.4% | 103% | CCn1c(OCC(F)(F)F)nnc1[C@@H](C)NS(=O)(=O)c1ccc(Br)c(C)c1 [Compound 489] | –
